# From patent publication US7183415B2, “Quinoline compound” (Takeda Pharmaceutical Company Limited, priority 2001, dated 2007)
row,Structure (SMILES),melting point [°C]
1,"Cc1c(NC(=O)N2CCC(c3ccc(Cl)cc3)CC2)ccc2cc(CN3CCCC3)cnc12 [Example 98, 4-(4-chlorophenyl)-N-[8-methyl-3-(1-pyrrolidinylmethyl)-7-quinolinyl]-1-piperidine carboxamide]",203 to 205
2,"Cc1c(NC(=O)c2ccc(-c3ccc4c(c3)CCCCO4)cc2)ccc2cc(CN3CCCC3)cnc12 [Example 116, N-[8-methyl-3-(1-pyrrolidinylmethyl)-7-quinolinyl]-4-(2,3,4,5-tetrahydro-1-benzoxepin-7-yl)benzamide]",162 to 163
3,"Cc1c(NC(=O)c2ccc(C3CCCCC3)cc2)ccc2cc(CN3CCCC3)cnc12 [Example 122, 4-cyclohexyl-N-[8-methyl-3-(1-pyrrolidinylmethyl)-7-quinolinyl]benzamide]",178 to 179
4,"COc1ccc(COc2ccc(C(=O)Nc3ccc4cc(CN5CCCC5)cnc4c3C)cc2)cc1 [Example 126, 4-[(4-methoxybenzyl)oxy]-N-[8-methyl-3-(1-pyrrolidinylmethyl)-7-quinolinyl]benzamide]",192 to 193
5,"Cc1ccc(-c2ccc(C(=O)Nc3ccc4cc(CN5CCCC5)cnc4c3C)c(F)c2)cc1 [Example 135, 3-fluoro-4′-methyl-N-[8-methyl-3-(1-pyrrolidinylmethyl)-7-quinolinyl][1,1′-biphenyl]-4-carboxamide]",180 to 182
6,"Cc1c(NC(=O)c2ccc(-c3ccc(OC(F)(F)F)cc3)cc2F)ccc2cc(CN3CCCC3)cnc12 [Example 136, 3-fluoro-N-[8-methyl-3-(1-pyrrolidinylmethyl)-7-quinolinyl]-4′-(trifluoromethoxy)[1,1′-biphenyl]-4-carboxamide]",175 to 178
7,"Cc1c(NC(=O)c2ccc(-c3ccc(F)cc3F)cc2F)ccc2cc(CN3CCCC3)cnc12 [Example 139, 2′,3,4′-trifluoro-N-[8-methyl-3-(1-pyrrolidinylmethyl)-7-quinolinyl][1,1′-biphenyl]-4-carboxamide]",172 to 173
8,"CCc1ccc(-c2ccc(C(=O)Nc3ccc4cc(CN5CCCC5)cnc4c3C)c(F)c2)cc1 [Example 140, 4′-ethyl-3-fluoro-N-[8-methyl-3-(1-pyrrolidinylmethyl)-7-quinolinyl][1,1′-biphenyl]-4-carboxamide]",178 to 179
9,"Cc1c(NC(=O)c2ccc(-c3cc4ccccc4o3)cc2F)ccc2cc(CN3CCCC3)cnc12 [Example 142, 4-(1-benzofuran-2-yl)-2-fluoro-N-[8-methyl-3-(1-pyrrolidinylmethyl)-7-quinolinyl]benzamide]",202 to 203
10,"CSc1ccc(-c2ccc(C(=O)Nc3ccc4cc(CN5CCCC5)cnc4c3C)c(F)c2)cc1 [Example 144, 3-fluoro-N-[8-methyl-3-(1-pyrrolidinylmethyl)-7-quinolinyl]-4′-(methylsulfanyl)[1,1′-biphenyl]-4-carboxamide]",189 to 190
11,"Cc1c(NC(=O)c2ccc(-c3ccc(F)cc3)cc2F)ccc2cc(CN3CCCC3)cnc12 [Example 145, 3,4′-difluoro-N-[8-methyl-3-(1-pyrrolidinylmethyl)-7-quinolinyl][1,1′-biphenyl]-4-carboxamide]",176 to 178
12,"COc1ccc(-c2ccc(C(=O)Nc3ccc4cc(CN5CCCC5)cnc4c3C)c(F)c2)cc1 [Example 147, 3-fluoro-4′-methoxy-N-[8-methyl-3-(1-pyrrolidinylmethyl)-7-quinolinyl][1,1′-biphenyl]-4-carboxamide]",164 to 166
13,"Cc1c(NC(=O)c2ccc(-c3ccccc3F)cc2F)ccc2cc(CN3CCCC3)cnc12 [Example 148, 2′,3-difluoro-N-[8-methyl-3-(1-pyrrolidinylmethyl)-7-quinolinyl][1,1′-biphenyl]-4-carboxamide]",159 to 160
14,"Cc1c(NC(=O)c2ccc(-c3ccccc3)cc2F)ccc2cc(CN3CCCC3)cnc12 [Example 149, 3-fluoro-N-[8-methyl-3-(1-pyrrolidinylmethyl)-7-quinolinyl][1,1′-biphenyl]-4-carboxamide]",166 to 168
15,"Cc1c(NC(=O)c2ccc(-c3ccccc3)c(F)c2)ccc2cc(CN3CCCC3)cnc12 [Example 151, 2-fluoro-N-[8-methyl-3-(1-pyrrolidinylmethyl)-7-quinolinyl][1,1′-biphenyl]-4-carboxamide]",156 to 158
16,"Cc1c(NC(=O)c2ccc(-c3ccccc3F)c(F)c2)ccc2cc(CN3CCCC3)cnc12 [Example 156, 2,2′-difluoro-N-[8-methyl-3-(1-pyrrolidinylmethyl)-7-quinolinyl][1,1′-biphenyl]-4-carboxamide]",139 to 140

# Continued, values first:
row,melting point [°C],Structure (SMILES)
1,234 to 236,"Cc1c(NC(=O)c2ccc(-c3ccc(Cl)cc3)nc2)ccc2cc(CN3CCCC3)cnc12 [Example 95, 6-(4-chlorophenyl)-N-[8-methyl-3-(1-pyrrolidinylmethyl)-7-quinolinyl]nicotinamide]"
2,180 to 182,"COc1ccc(-c2ccc(C(=O)Nc3ccc4cc(CN5CCCC5)cnc4c3C)cn2)cc1 [Example 96, 6-(4-methoxyphenyl)-N-[8-methyl-3-(1-pyrrolidinylmethyl)-7-quinolinyl]nicotinamide]"
3,207 to 209,"Cc1c(NC(=O)c2ccc(-c3ccc(F)cc3)nc2)ccc2cc(CN3CCCC3)cnc12 [Example 97, 6-(4-fluorophenyl)-N-[8-methyl-3-(1-pyrrolidinylmethyl)-7-quinolinyl]nicotinamide]"
4,133 to 135,"Cc1c(NC(=O)c2ccc(-c3ccccc3F)cc2)ccc2cc(CN3CCCC3)cnc12 [Example 99, 2′-fluoro-N-[8-methyl-3-(1-pyrrolidinylmethyl)-7-quinolinyl][1,1′-biphenyl]-4-carboxamide]"
5,177 to 179,"Cc1c(NC(=O)c2ccc(-c3ccc(F)cc3F)cc2)ccc2cc(CN3CCCC3)cnc12 [Example 100, 2′,4′-difluoro-N-[8-methyl-3-(1-pyrrolidinylmethyl)-7-quinolinyl][1,1′-biphenyl]-4-carboxamide]"
6,220 to 222,"Cc1c(NC(=O)c2ccc(-c3ccc(C(F)(F)F)cc3)cc2)ccc2cc(CN3CCCC3)cnc12 [Example 101, N-[8-methyl-3-(1-pyrrolidinylmethyl)-7-quinolinyl]-4′-(trifluoromethyl)[1,1′-biphenyl]-4-carboxamide]"
7,199 to 201,"Cc1c(NC(=O)c2ccc(-c3ccc(F)c(F)c3)cc2)ccc2cc(CN3CCCC3)cnc12 [Example 102, 3′,4′-difluoro-N-[8-methyl-3-(1-pyrrolidinylmethyl)-7-quinolinyl][1,1′-biphenyl]-4-carboxamide]"
8,200 to 202,"Cc1c(NC(=O)c2ccc(-c3ccc(OC(F)(F)F)cc3)cc2)ccc2cc(CN3CCCC3)cnc12 [Example 103, N-[8-methyl-3-(1-pyrrolidinylmethyl)-7-quinolinyl]-4′-(trifluoromethoxy)[1,1′-biphenyl]-4-carboxamide]"
9,210 to 211,"Cc1c(NC(=O)c2ccc(-c3ccc(Cl)s3)cc2)ccc2cc(CN3CCCC3)cnc12 [Example 107, 4-(5-chloro-2-thienyl)-N-[8-methyl-3-(1-pyrrolidinylmethyl)-7-quinolinyl]benzamide]"
10,151 to 152,"Cc1cccc(-c2ccc(C(=O)Nc3ccc4cc(CN5CCCC5)cnc4c3C)cc2)c1 [Example 109, 3′-methyl-N-[8-methyl-3-(1-pyrrolidinylmethyl)-7-quinolinyl][1,1′-biphenyl]-4-carboxamide]"
11,150 to 151,"Cc1ccccc1-c1ccc(C(=O)Nc2ccc3cc(CN4CCCC4)cnc3c2C)cc1 [Example 111, 2′-methyl-N-[8-methyl-3-(1-pyrrolidinylmethyl)-7-quinolinyl][1,1′-biphenyl]-4-carboxamide]"
12,158 to 159,"Cc1c(NC(=O)c2ccc(-c3cccc(F)c3)cc2)ccc2cc(CN3CCCC3)cnc12 [Example 112, 3′-fluoro-N-[8-methyl-3-(1-pyrrolidinylmethyl)-7-quinolinyl][1,1′-biphenyl]-4-carboxamide]"
13,176 to 177,"Cc1c(NC(=O)c2ccc(-c3ccc4c(c3)CCO4)cc2)ccc2cc(CN3CCCC3)cnc12 [Example 113, 4-(2,3-dihydro-1-benzofuran-5-yl)-N-[8-methyl-3-(1-pyrrolidinylmethyl)-7-quinolinyl]benzamide]"
14,195 to 197,"Cc1c(NC(=O)c2ccc(-c3ccc4c(c3)CCCO4)cc2)ccc2cc(CN3CCCC3)cnc12 [Example 114, 4-(3,4-dihydro-2H-chromen-6-yl)-N-[8-methyl-3-(1-pyrrolidinylmethyl)-7-quinolinyl]benzamide]"
15,181 to 183,"Cc1c(NC(=O)c2ccc(-c3ccc(Cl)cc3)cc2F)ccc2cc(CN3CCCC3)cnc12 [Example 146, 4′-chloro-3-fluoro-N-[8-methyl-3-(1-pyrrolidinylmethyl)-7-quinolinyl][1,1′-biphenyl]-4-carboxamide]"
16,174 to 176,"COc1ccc(-c2ccc(C(=O)Nc3ccc4cc(CN5CCCC5)cnc4c3C)cc2F)cc1 [Example 152, 2-fluoro-4′-methoxy-N-[8-methyl-3-(1-pyrrolidinylmethyl)-7-quinolinyl][1,1′-biphenyl]-4-carboxamide]"
17,176 to 178,"Cc1c(NC(=O)c2ccc(-c3ccc(F)cc3)c(F)c2)ccc2cc(CN3CCCC3)cnc12 [Example 153, 2,4′-difluoro-N-[8-methyl-3-(1-pyrrolidinylmethyl)-7-quinolinyl][1,1′-biphenyl]-4-carboxamide]"
18,190 to 192,"Cc1c(NC(=O)c2ccc(-c3ccc(Cl)cc3)c(F)c2)ccc2cc(CN3CCCC3)cnc12 [Example 154, 4′-chloro-2-fluoro-N-[8-methyl-3-(1-pyrrolidinylmethyl)-7-quinolinyl][1,1′-biphenyl]-4-carboxamide]"
19,193 to 194,"Cc1ccc(-c2ccc(C(=O)Nc3ccc4cc(CN5CCCC5)cnc4c3C)cc2F)cc1 [Example 155, 2-fluoro-4′-methyl-N-[8-methyl-3-(1-pyrrolidinylmethyl)-7-quinolinyl][1,1′-biphenyl]-4-carboxamide]"
20,200 to 203,"Cc1cc(-c2ccc(F)cc2)ccc1C(=O)Nc1ccc2cc(CN3CCCC3)cnc2c1C [Example 158, 4′-fluoro-3-methyl-N-[8-methyl-3-(1-pyrrolidinylmethyl)-7-quinolinyl][1,1′-biphenyl]-4-carboxamide]"
